Reference: US5563155A, “Individual stereosiomers of 7-[3-(aminoalkyl)-1-pyrrolidinyl]-quinolones and naphthyridones as antibacterial agents” (Warner-Lambert Company, priority 1995, dated 1996)
Values after ≈ are worked out from the molar mass of the structure shown. Where a name gives a salt, the structure may show the parent alone. Read-outs that look alike come from different tables or passages of the source.

Tests used:
[1] = system: Ent. cloacae MA2646; assay: in vitro antibacterial activity, microtitration dilution (MIC), Ent. cloacae MA2646; format: cell-based; conditions: Enterobacter cloacae, read-out: minimum inhibiting concentration (MIC)
Description: (§1) The in vitro antibacterial activity, is obtained by the microtitration dilution method as described in Heifetz, et al., Antimicr. Agents & Chemother., 6, 124 (1974), which is incorporated herein by reference.
(§2) By use of the above methods, the following minimum inhibiting concentration values (MICs in μg/mL), PD50 's in mg/kg, no effect phototoxicity dose in mg/kg and the cytotoxicity IC50 in μg/mL were obtained for representative enantiomers of the invention and compounds of the prior art as shown in the table.

[2] = system: Esch. coli Vogel; assay: in vitro antibacterial activity, microtitration dilution (MIC), Esch. coli Vogel; format: cell-based; conditions: Escherichia coli, read-out: minimum inhibiting concentration (MIC)
Description: as §1, §2

[3] = system: Klebs. pneumoniae MGH-2; assay: in vitro antibacterial activity, microtitration dilution (MIC), Klebs. pneumoniae MGH-2; format: cell-based; conditions: Klebsiella pneumoniae, MGH2, read-out: minimum inhibiting concentration (MIC)
Description: as §1, §2

[4] = system: Prot. rettgeri M 1771; assay: in vitro antibacterial activity, microtitration dilution (MIC), Prot. rettgeri M 1771; format: cell-based; conditions: Providencia rettgeri, M1771, read-out: minimum inhibiting concentration (MIC)
Description: as §1, §2

[5] = system: Pseud. aeruginosa UI-18; assay: in vitro antibacterial activity, microtitration dilution (MIC), Pseud. aeruginosa UI-18; format: cell-based; conditions: Pseudomonas aeruginosa, UI18, read-out: minimum inhibiting concentration (MIC)
Description: as §1, §2

[6] = system: Staph. aureus H 228; assay: in vitro antibacterial activity, microtitration dilution (MIC), Staph. aureus H 228; format: cell-based; conditions: Staphylococcus aureus, H228, read-out: minimum inhibiting concentration (MIC)
Description: as §1, §2

[7] = system: Staph. aureus UC-76; assay: in vitro antibacterial activity, microtitration dilution (MIC), Staph. aureus UC-76; format: cell-based; conditions: Staphylococcus aureus, UC76, read-out: minimum inhibiting concentration (MIC)
Description: as §1, §2

[8] = system: Strep. faecalis MGH-2; assay: in vitro antibacterial activity, microtitration dilution (MIC), Strep. faecalis MGH-2; format: cell-based; conditions: Enterococcus faecalis, MGH2, read-out: minimum inhibiting concentration (MIC)
Description: as §1, §2

[9] = system: Strep. pheumoniae SV-1; assay: in vitro antibacterial activity, microtitration dilution (MIC), Strep. pneumoniae SV-1; format: cell-based; conditions: Streptococcus pneumoniae, SV1, read-out: minimum inhibiting concentration (MIC)
Description: as §1, §2

[10] = system: Strep. pyogenes C-203; assay: in vitro antibacterial activity, microtitration dilution (MIC), Strep. pyogenes C-203; format: cell-based; conditions: Streptococcus pyogenes, C203, read-out: minimum inhibiting concentration (MIC)
Description: as §1, §2

[11] = system: Esch. coli Vogel; assay: median protective dose in mice given lethal systemic infections, Esch. coli Vogel; format: in vivo; conditions: Escherichia coli, single dose at time of challenge, read-out: median protective dose (PD50)
Description: (§3) The in vivo activity is obtained when the compounds are tested according to the procedure of Miller, et al (Proc. Soc. Exp. Biol. Med. 57, 261, 1944). The median protective dose (PD50) was determined in mice given lethal systemic infections. Single doses of compound were given at time of challenge.
as §2
(§4) The in vivo data as PD50 s are reported below the line of MICs for the same compound.

[12] = system: Strep. pyogenes C-203; assay: median protective dose in mice given lethal systemic infections, Strep. pyogenes C-203; format: in vivo; conditions: Streptococcus pyogenes, single dose at time of challenge, read-out: median protective dose (PD50)
Description: as §3, §2, §4

[13] = cytotoxicity, hamster V-79 cells, colony reduction; format: cell-based; conditions: 3 hours treatment, colonies counted after 5 days, read-out: Cytotox (cytotoxicity IC50)
Description: The cytotoxicity data is obtained using hamster V-79 cells. The cells were suspended in tissue culture medium and grown overnight. Cells were treated with drug for 3 hours, washed free of drug and then replated, and the colonies counted after 5 days. The concentration of drug that reduced colones by 50% relative to control was recorded.
as §2

Row | Compound | MIC [1] [µg/mL] | MIC [2] [µg/mL] | MIC [3] [µg/mL] | MIC [4] [µg/mL] | MIC [5] [µg/mL] | MIC [6] [µg/mL] | MIC [7] [µg/mL] | MIC [8] [µg/mL] | MIC [9] [µg/mL] | MIC [10] [µg/mL] | ED50 ([11]; PO) [mg/kg] | ED50 ([11]; SC) [mg/kg] | ED50 ([12]; C203, PO) [mg/kg] | ED50 ([12]; C203, SC) [mg/kg] | CC50 at 3 h [13] [µg/mL]
1 | CN[C@@H](C)[C@@H]1CCN(c2nc3c(cc2F)c(=O)c(C(=O)O)cn3C2CC2)C1 [Example 21, 3R,1S-1-cyclopropyl-6-fluoro-7-[3-(1-N-methylaminoethyl)-1-pyrrolidinyl]-1,4-dihydro-4-oxo-1,8-naphthyridine-3-carboxylic acid] | 0.1 (≈ 0.267 µM) | 0.1 (≈ 0.267 µM) | 0.2 (≈ 0.534 µM) | 0.4 (≈ 1.07 µM) | 1.6 (≈ 4.27 µM) | 0.05 (≈ 0.134 µM) | 0.0013 (≈ 0.00347 µM) | 0.05 (≈ 0.134 µM) | 0.013 (≈ 0.0347 µM) | 0.025 (≈ 0.0668 µM) | 1 | 0.5 | 2 | 2 | 130 (≈ 347 µM)
2 | CN[C@H](C)[C@H]1CCN(c2c(F)cc3c(=O)c(C(=O)O)cn(C4CC4)c3c2OC)C1 [Example 38, 3S,1R-1-cyclopropyl-6-fluoro-7-[3-(1-N-methylaminoethyl)-1-pyrrolidinyl]-8-methoxy-1,4-dihydro-4-oxo-3-quinolinecarboxy acid] | 0.2 (≈ 0.496 µM) | 0.2 (≈ 0.496 µM) | 0.4 (≈ 0.991 µM) | 0.8 (≈ 1.98 µM) | 3.1 (≈ 7.68 µM) | 0.05 (≈ 0.124 µM) | 0.013 (≈ 0.0322 µM) | 0.05 (≈ 0.124 µM) | 0.025 (≈ 0.062 µM) | 0.025 (≈ 0.062 µM) |  |  | 6 | 1 | 130 (≈ 322 µM)
3 | C[C@@H](N)[C@@H]1CCN(c2nc3c(cc2F)c(=O)c(C(=O)O)cn3-c2ccc(F)cc2F)C1 [Example 48, 3R,1R-7-[3-(1-aminoethyl)-1-pyrrolidinyl]-1-(2,4-difluorophenyl)-6-fluoro-1,4-dihydro-1,8-naphthyridine-3-carboxylic acid] | 0.1 (≈ 0.231 µM) | 0.1 (≈ 0.231 µM) | 0.2 (≈ 0.463 µM) | 0.4 (≈ 0.925 µM) | 1.6 (≈ 3.7 µM) | 0.1 (≈ 0.231 µM) | 0.025 (≈ 0.0578 µM) | 0.1 (≈ 0.231 µM) | 0.05 (≈ 0.116 µM) | 0.05 (≈ 0.116 µM) |  |  | 9 | 3 | 
4 | CCN[C@@H](C)[C@@H]1CCN(c2c(F)c(N)c3c(=O)c(C(=O)O)cn(C4CC4)c3c2F)C1 [Example 53, 3R,1S-5-amino-1-cyclopropyl-7-[3-(1-N-ethylaminoethyl)-1-pyrrolidinyl]-6,8-difluoro-1,4-dihydro-4-oxo-3-quinolinecarboxylic acid] | 0.025 (≈ 0.0595 µM) | 0.025 (≈ 0.0595 µM) | 0.05 (≈ 0.119 µM) | 0.1 (≈ 0.238 µM) | 0.8 (≈ 1.9 µM) | ≤ 0.003 | ≤ 0.003 | 0.013 (≈ 0.0309 µM) | ≤ 0.003 | ≤ 0.003 | 1.6 | 0.8 | 0.3 | 0.3 | 
5 | CCOc1c(N2CC[C@@H]([C@H](C)NC)C2)c(F)cc2c(=O)c(C(=O)O)cn(C3CC3)c12 [Example 57, 3R,1S-1-cyclopropyl-8-ethoxy-6-fluoro-1,4-dihydro-7-[3-(1-N-methylaminoethyl)-1-pyrrolidinyl]-4-oxo-3-quinolinecarboxylic acid] | 0.4 (≈ 0.958 µM) | 0.4 (≈ 0.958 µM) | 0.4 (≈ 0.958 µM) | 0.8 (≈ 1.92 µM) | 3.1 (≈ 7.43 µM) | 0.025 (≈ 0.0599 µM) | 0.013 (≈ 0.0311 µM) | 0.05 (≈ 0.12 µM) | 0.025 (≈ 0.0599 µM) | 0.025 (≈ 0.0599 µM) |  |  |  |  | 220 (≈ 527 µM)
6 | CN[C@H](C)[C@@H]1CCN(c2cc3c(c(C)c2F)c(=O)c(C(=O)O)cn3-c2ccc(F)cc2F)C1 [Example 63] | 0.4 (≈ 0.871 µM) | 0.4 (≈ 0.871 µM) | 0.4 (≈ 0.871 µM) | 0.8 (≈ 1.74 µM) | 3.1 (≈ 6.75 µM) | 0.1 (≈ 0.218 µM) | 0.05 (≈ 0.109 µM) | 0.2 (≈ 0.435 µM) | 0.2 (≈ 0.435 µM) | 0.2 (≈ 0.435 µM) |  |  |  |  | 
7 | Cc1c(F)c(N2CC[C@@H]([C@H](C)N)C2)cc2c1c(=O)c(C(=O)O)cn2-c1ccc(F)cc1F [Example 65, 3R,1S-7-[3-(1-aminoethyl)-1-pyrrolidinyl]-1-(2,4-difluorophenyl)-6-fluoro-1,4-dihydro-5-methyl-4-oxo-3-quinolinecarboxylic acid, monohydrochloride] | 0.1 | 0.1 | 0.2 | 0.4 | 0.8 | 0.013 | 0.006 | 0.025 | 0.003 | 0.003 |  |  | 5 | 0.6 | 10
8 | CN[C@@H](C)[C@@H]1CCN(c2cc3c(c(C)c2F)c(=O)c(C(=O)O)cn3C2CC2)C1 [Example 67, 3R,1S-1-cyclopropyl-6-fluoro-1,4-dihydro-5-methyl-7-[3-[1-(methylamino)ethyl]-1-pyrrolidinyl]-4-oxo-3-quinolinecarboxylic acid, monohydrochloride] | 0.4 |  | 0.8 | 1.6 | 3.1 | 0.05 | 0.013 | 0.1 | 0.013 | 0.025 |  |  | 29 | 3 | 
9 | C[C@H]([C@H]1CCN(c2nc3c(cc2F)c(=O)c(C(=O)O)cn3C2CC2)C1)N(C)C [Example 69, 3S,1R-1-cyclopropyl-7-[3-[1-(dimethylamino)ethyl]-1-pyrrolidinyl]-6-fluoro-1,4-dihydro-4-oxo-1,8-naphthyridine-3-carboxylic acid] | 0.1 (≈ 0.257 µM) | 0.1 (≈ 0.257 µM) | 0.2 (≈ 0.515 µM) | 0.4 (≈ 1.03 µM) | 1.6 (≈ 4.12 µM) | 0.05 (≈ 0.129 µM) | 0.006 (≈ 0.0154 µM) | 0.025 (≈ 0.0644 µM) | 0.013 (≈ 0.0335 µM) | 0.025 (≈ 0.0644 µM) |  |  |  |  | 
10 | C[C@@H]([C@H]1CCN(c2nc3c(cc2F)c(=O)c(C(=O)O)cn3C2CC2)C1)N(C)C [Example 70, 3S,1S-1-cyclopropyl-7-[3-[1-(dimethylamino)ethyl]-1-pyrrolidinyl]-6-fluoro-1,4-dihydro-4-oxo-1,8-naphthyridine-3-carboxylic acid] | 0.4 (≈ 1.03 µM) | 0.4 (≈ 1.03 µM) | 0.8 (≈ 2.06 µM) | 3.1 (≈ 7.98 µM) | 12.5 (≈ 32.2 µM) | 0.4 (≈ 1.03 µM) | 0.2 (≈ 0.515 µM) | 0.8 (≈ 2.06 µM) | 0.2 (≈ 0.515 µM) | 0.4 (≈ 1.03 µM) |  |  |  |  | 
11 | CCN[C@@H](C)[C@@H]1CCN(c2nc3c(cc2F)c(=O)c(C(=O)O)cn3C2CC2)C1 [Example 78, 3R,1S-1-cyclopropyl-7-[3-[1-(ethylamino)ethyl]-1-pyrrolidinyl]-6-fluoro-1,4-dihydro-4-oxo-1,8-naphthyridine-3-carboxylic acid] | 0.4 (≈ 1.03 µM) | 0.1 (≈ 0.257 µM) | 0.2 (≈ 0.515 µM) | 1.6 (≈ 4.12 µM) | 1.6 (≈ 4.12 µM) | 0.05 (≈ 0.129 µM) | 0.025 (≈ 0.0644 µM) | 0.05 (≈ 0.129 µM) | 0.025 (≈ 0.0644 µM) | 0.05 (≈ 0.129 µM) |  |  | 6 | 4 | 
12 | CCN[C@H](C)[C@H]1CCN(c2nc3c(cc2F)c(=O)c(C(=O)O)cn3C2CC2)C1 [Example 79, 3S,1R-1-cyclopropyl-7-[3-[1-(ethylamino)ethyl]-1-pyrrolidinyl]-6-fluoro-1,4-dihydro-4-oxo-1,8-naphthyridine-3-carboxylic acid] | 0.1 (≈ 0.257 µM) | 0.1 (≈ 0.257 µM) | 0.2 (≈ 0.515 µM) | 0.8 (≈ 2.06 µM) | 1.6 (≈ 4.12 µM) | 0.1 (≈ 0.257 µM) | 0.025 (≈ 0.0644 µM) | 0.05 (≈ 0.129 µM) | 0.025 (≈ 0.0644 µM) | 0.05 (≈ 0.129 µM) | 2 | 1 | 2 | 2 | 
13 | CCN[C@@H](C)[C@H]1CCN(c2nc3c(cc2F)c(=O)c(C(=O)O)cn3C2CC2)C1 [Example 80, 3S,1S-1-cyclopropyl-7-[3-[1-(ethylamino)ethyl]-1-pyrrolidinyl]-6-fluoro-1,4-dihydro-4-oxo-1,8-naphthyridine-3-carboxylic acid] | 0.2 (≈ 0.515 µM) | 0.2 (≈ 0.515 µM) | 0.4 (≈ 1.03 µM) | 1.6 (≈ 4.12 µM) | 3.1 (≈ 7.98 µM) | 0.2 (≈ 0.515 µM) | 0.1 (≈ 0.257 µM) | 0.2 (≈ 0.515 µM) | 0.1 (≈ 0.257 µM) | 0.4 (≈ 1.03 µM) |  |  |  |  | 
